Results reported in patent US9765039B2, “Biaryl derivatives as bromodomain inhibitors” (Zenith Epigenetics Ltd., priority 2012, dated 2017).

Tests used:
Brd4 bromodomain 1 = biological target: T1, Brd4 bromodomain 1 (Homo sapiens, UniProt O60885); experiment: Inhibition of tetra-acetylated histone H4 binding to BET bromodomains (TR-FRET); design: key: Active: Compounds with an IC50 value less than 30 μM were deemed to be active.; Not Active: Compounds with an IC50 value less than 30 μM were deemed to be active; settings: first bromodomain of Brd4, tetra-acetylated histone H4 peptide
T1 construct: made in house; host or cells: E. coli BL21(DE3)
In short: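 TR-FRET with N-terminally His-tagged bromodomains (200 nM, E. coli-expressed, Ni affinity and SEC-purified) and biotinylated tetra-acetylated histone H4 peptide (25–50 nM), detected with Eu-cryptate streptavidin and XL665 anti-His antibody. Buffer 30 mM HEPES pH 7.4, 320 mM KF, 0.08% BSA, 0.2% DMSO; 2 h RT. IC50 from decrease in 665/620 nm ratio.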

Human AML MV-4-11 cells = experiment: Inhibition of cell proliferation in cancer cell lines (CellTiter Aqueous One); assay type: cell-based; design: key: Active: Compounds with an IC50 value less than 30 μM were deemed to be active.; Not Active: Compounds with an IC50 value less than 30 μM were deemed to be active; settings: 72 hours
In short: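 Exponentially growing MV-4-11 cells were treated immediately with two-fold compound dilutions from 30 µM to 0.2 µM in triplicate for 72 h at 37 °C. Viability was read by MTS (CellTiter Aqueous One) absorbance at 490 nm after 3-4 h; % proliferation vs DMSO gave IC50.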

hApoA-1 mRNA = experiment: Up-regulation of hApoA-1 mRNA transcription in Huh7 cells; assay type: cell-based, human; design: key: Active: Compounds with an EC170 value less than 30 μM are deemed to be active.; Not Active: Compounds with an EC170 value less than 30 μM are deemed to be active; settings: 48 hrs treatment, ApoA-I mRNA
In short: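 Huh7 cells plated 24 h before compound, then treated 48 h; mRNA isolated from lysates and ApoA-I quantified by one-step real-time PCR. Fold induction derived from Ct values relative to the matching DMSO control; EC170 reported as activity measure.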

c-myc = experiment: Inhibition of c-myc expression in cancer cell lines (mRNA, real-time PCR); assay type: cell-based; design: key: Active: Compounds with an IC50 value less than 30 μM were deemed to be active; settings: Human AML MV4-11 cells, 3 hours
In short: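 MV4-11 cells (2.5×10^4) exposed to compound or 0.1% DMSO for 3 h at 37° C, then lysed for mRNA isolation. c-myc and cyclophilin cDNAs co-amplified by duplex RT real-time PCR. IC50 from dose-response curve.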

arthritic rats = experiment: In vivo efficacy in rat collagen induced arthritis; design: species or system female Lewis strain of rats; settings: collagen Day 1 and 7, dosed Day 11 to Day 17
Protocol: Rat collagen-induced arthritis is an experimental model of polyarthritis that has been widely used for preclinical testing of numerous anti-arthritic agents. Following administration of collagen, this model establishes a measurable polyarticular inflammation, marked cartilage destruction in association with pannus formation and mild to moderate bone resorption and periosteal bone proliferation. In this model, collagen was administered to female Lewis strain of rats on Day 1 and 7 of study and dosed with compounds from Day 11 to Day 17. Compounds were evaluated to assess the potential to inhibit the inflammation (including paw swelling), cartilage destruction and bone resorption in arthritic rats, using a model in which the treatment is administered after the disease has been established.

- FRET activity (IC50 < 30 μM) (Brd4 bromodomain 1): Active
- cell proliferation activity (IC50 < 30 μM) (Human AML MV-4-11 cells): Active
- c-myc activity (IC50 < 30 μM) (c-myc): Active
- melting point: 93 to 95 °C
SMILES: COc1cc(OC)c2c(=O)[nH]c(-c3ccc(OCCNC(C)C)c(-c4ccc([S+](C)[O-])cc4)n3)nc2c1 (stereo not drawn) [Example 41, 2-(5-(2-(Isopropylamino)ethoxy)-6-(4-(methylsulfinyl)phenyl)pyridin-2-yl)-5,7-dimethoxyquinazolin-4(3H)-one]
- ApoA-1 Activity (EC170 < 30 μM) (hApoA-1 mRNA): Active
- In vivo Activity (arthritic rats): Active
